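Dose response: 5 concentrations. Exposure: 48 h. Format: 96-well plates. Endpoint: linear interpolation; highest concentration if not reached. At the TGI there is no net growth.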
Assays:
Experiment in all cases: NCI tumour cell line growth inhibition, 48 h
A549 NSCLC = test system: A549 NSCLC
HT29 colon = test system: HT29 colon
DU-145 prostate = test system: DU-145 prostate
HOP-62 NSCLC = test system: HOP-62 NSCLC
HCC-2998 colon = test system: HCC-2998 colon
MDA-MB-435 = test system: MDA-MB-435
RPMI-8226 leukemia = test system: RPMI-8226 leukemia
MDA-MB-231 breast = test system: MDA-MB-231 breast
MOLT-4 leukemia = test system: MOLT-4 leukemia
SW-620 colon = test system: SW-620 colon
HCT-15 colon = test system: HCT-15 colon
NCI/ADR-RES ovarian = test system: NCI/ADR-RES ovarian
A498 renal = test system: A498 renal
UACC-62 melanoma = test system: UACC-62 melanoma
BT-549 breast = test system: BT-549 breast
HL-60(TB) leukemia = test system: HL-60(TB) leukemia

Row | Compound | TGI (A549 NSCLC) [µM] | TGI (HT29 colon) [µM] | TGI (DU-145 prostate) [µM] | TGI (HOP-62 NSCLC) [µM] | TGI (HCC-2998 colon) [µM] | TGI (MDA-MB-435) [µM] | TGI (RPMI-8226 leukemia) [µM] | TGI (MDA-MB-231 breast) [µM] | TGI (MOLT-4 leukemia) [µM] | TGI (SW-620 colon) [µM] | TGI (HCT-15 colon) [µM] | TGI (NCI/ADR-RES ovarian) [µM] | TGI (A498 renal) [µM] | TGI (UACC-62 melanoma) [µM] | TGI (BT-549 breast) [µM] | TGI (HL-60(TB) leukemia) [µM]
1 | O=C1CC(=O)NC(=NN2C(=O)CSC2c2ccc(Cl)cc2)N1 (centres undefined) | > 100 | > 100 | > 100 | 60.9 | > 100 | > 100 | > 100 | > 100 | > 100 | > 100 | > 100 | > 100 | > 100 | > 100 | > 100 | –
2 | CC(=O)O[C@H]1[C@@H](OC2CCCC2(c2ccccc2)c2ccccc2)O[N+]([O-])=C[C@@H]1c1ccccc1 (some centres undefined) | 30.9 | 6.94 | 23.7 | 38.2 | 27.2 | 11.3 | 18.9 | 40.9 | 7.54 | 17.6 | 16.7 | 12.9 | 23.4 | 15.7 | 17.5 | 5.71
3 | c1ccc(CN2C3C4N(Cc5ccccc5)C2C2N(Cc5ccccc5)C(C(N2Cc2ccccc2)N4Cc2ccccc2)N3Cc2ccccc2)cc1 | > 100 | > 100 | > 100 | > 100 | > 100 | > 100 | > 100 | > 100 | > 100 | > 100 | > 100 | > 100 | > 100 | > 100 | > 100 | > 100
4 | CC(NC1=NCCO1)c1ccsc1 (centres undefined) | > 100 | 42.7 | > 100 | – | > 100 | 43.1 | 59.9 | 35.6 | 52.3 | 43.9 | > 100 | > 100 | > 100 | 34.3 | > 100 | 53.3
5 | CNc1ccc(C)cc1S(=O)(=O)c1ccccc1[N+](=O)[O-] | > 100 | > 100 | > 100 | > 100 | > 100 | > 100 | > 100 | > 100 | > 100 | > 100 | > 100 | > 100 | > 100 | > 100 | > 100 | –
6 | O=S(=O)(Cc1ccccc1)c1nnc(S(=O)(=O)c2ccc(Cl)cc2)s1 | 68.1 | 60.7 | 34.3 | 47.3 | – | 90.6 | 61.9 | 91.7 | > 100 | 64.1 | 39.8 | 77.9 | 43.6 | 58.7 | 41.6 | –
7 | C=CC(=O)C#Cc1cnc(OC)nc1OC | > 100 | > 54.4 | > 100 | 45.7 | 42.2 | 51.5 | 6.93 | 38.1 | 4.13 | 23.4 | 24.6 | > 86.7 | > 69.1 | 34.4 | 17.5 | 3.25
8 | c1ccc(C2(c3cc4ccccc4[nH]3)OCCO2)nc1 | > 100 | > 100 | > 100 | > 100 | > 100 | > 100 | – | > 100 | – | > 100 | > 100 | > 100 | > 100 | > 100 | > 100 | > 100
9 | COc1ccc(C[C@@H]2OC3(C=CC(=O)CC3Sc3ccccc3)O[C@H]2Cc2ccc(OC)cc2)cc1 (some centres undefined) | 12.7 | 3.19 | 11.6 | 2.5 | – | 3.98 | 1.31 | 7.35 | 2.18 | 0.946 | 2.8 | 3.64 | 16.1 | 5.12 | 1.49 | 6.06
10 | COc1cc2c(SCCN(C)C)nc3ccccc3c2c2ccccc12 | 3.08 | > 100 | 15.8 | 2.81 | 2.88 | 3.3 | 4.23 | 5.52 | 8.14 | 3.64 | 3.31 | 16.5 | 35.8 | 3.12 | 21.7 | –
11 | COC(=O)c1ccccc1C1CN=NC12Cc1cc3c(cc1C2=O)CCC3 (centres undefined) | > 100 | > 100 | > 100 | > 100 | > 100 | > 100 | – | > 100 | > 100 | > 100 | > 100 | > 100 | > 100 | > 100 | > 100 | 61.5
12 | O=C(Cc1csc2[n+]1C(=O)/C(=C/c1ccc(Cl)cc1)S2)Nc1ccccc1 | 84.6 | 76.1 | > 100 | 30.4 | 39.3 | 95 | > 100 | 37.3 | – | > 100 | 90.6 | 82.4 | 40.1 | 32 | 60.3 | 74.2
13 | C=C1[C@@H](OC(C)=O)/C=C/C2C3C(=O)[C@@](C)(OC(C)=O)[C@H]([C@H](OC(C)=O)[C@]4(O)[C@@H](C)C(=O)O[C@H]4[C@H]1Cl)[C@@]23C (some centres undefined) | > 100 | > 100 | > 100 | > 100 | > 100 | > 100 | > 100 | > 100 | > 100 | > 100 | > 100 | > 100 | > 100 | > 100 | > 100 | –
14 | CN(C)CCNc1ncnc2nc(-c3ccccc3)c(-c3ccccc3)nc12 | > 100 | > 100 | > 100 | > 100 | – | > 100 | – | > 100 | 76 | > 100 | – | > 100 | > 100 | > 100 | > 100 | > 100

Source: PubChem BioAssay (NCI)
